Data on 40 molecules can be found in patent US8088806B2 (Achillion Pharmaceuticals, Inc., priority 2005, dated 2012).

Each structure is given as a SMILES string.

For the first experiment, the system named is HCV replicon. Description: Replicon based assay of HCV replication inhibition (NPT ELISA). It is filed as cell-based, Hepatitis C virus. To be noted: Hepatitis C virus, Huh-7, 72 h, Table I; Huh-7 HCV replicon-containing cells, three days; read-out: Activity. The method in brief: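 Huh-7 cells carrying a bicistronic HCV replicon (neo, EMCV-IRES-driven NS3–NS5B) treated overnight after seeding with usually 6 concentrations, 10 to 0.03 micromolar, for three days at 37° C without G418. Replication read as NPT level by captured ELISA; matched-DMSO wells and interferon alpha as controls.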
On to `CCCCCOc1ccc(Nc2nc(-c3cc(C(=O)OCC)no3)cs2)cc1C(F)(F)F` [compound 202, ethyl 5-(2-(3-(trifluoromethyl)-4-(pentyloxy)phenylamino)thiazol-4-yl)isoxazole-3-carboxylate], for which the EC50 is below 1000 nM. On to `CCCCCOc1ccc(NC(=O)c2nc(-c3cccnc3)cs2)cc1` [compound 113, N-(4-(pentyloxy)phenyl)-4-(pyridin-3-yl)thiazole-2-carboxamide], for which the EC50 was above 10000 nM.

For the molecule `c1ccc(COc2cccc(Nc3nc(-c4cccnc4)cs3)c2)cc1` [compound 87, N-(3-(benzyloxy)phenyl)-4-(pyridin-3-yl)thiazol-2-amine], the EC50 is below 1000 nM. In the case of `Fc1ccc(-c2csc(NC3=NN(c4ccccc4)CC3)n2)cc1` [compound 146, N-(4-(4-fluorophenyl)thiazol-2-yl)-4,5-dihydro-1-phenyl-1H-pyrazol-amine], the EC50 is above 10000 nM. On the same count and under the same terms, the result for `CCCCCOc1ccc(Nc2nc(-c3ccc(Cl)cc3)cs2)cn1` [compound 66, N-(4-(4-chlorophenyl)thiazol-2-yl)-6-(pentyloxy)pyridin-3-amine] reads below 1000 nM; that for `CCCCCOc1ccc(Nc2ncc(Br)s2)cc1C(F)(F)F` [compound 9, 5-bromo-N-(3-(trifluoromethyl)-4-(pentyloxy)phenyl)thiazol-2-amine], below 1000 nM. The same measure, in the same setting: the result for `CCCCCOc1ccc(N(C)c2nc(C(=O)Nc3ccc(Cl)cc3)cs2)cc1C(F)(F)F` [compound 159, 2-(N-(3-(trifluoromethyl)-4-(pentyloxy)phenyl)-N-methylamino)-N-(4-chlorophenyl)thiazole-4-carboxamide] reads above 10000 nM.

Staying with this experiment, now noted: Hepatitis C virus, Huh-7, 72 h, Table III; Huh-7 HCV replicon-containing cells, three days; read-out: Activity.
As for `CCCCCCCCc1ccc(Nc2nc(-c3ccc4[nH]c(=O)oc4c3)cs2)cc1` [compound 549, 6-(2-(4-octylphenylamrno)thiazol-4-yl)benzo[d]oxazol-2(3H)-one], the EC50 was below 1000 nM. With `FC(F)(F)c1cc(Nc2nc(-c3cncnc3)cs2)ccc1OC1CCCC1` [compound 621, N-(4-(cyclopentyloxy)-3-(trifluoromethyl)phenyl)-4-(pyrimidin-5-yl)thiazol-2-amine], the EC50 is below 1000 nM. On to `CCCCCCCCSc1ccc(Nc2nc(-c3cccnc3)cs2)cc1C(F)(F)F` [compound 692, N-(3-(trifluoromethyl)-4-(octylthio)phenyl)-4-(pyridin-3-yl)thiazol-2-amine], for which the EC50 is below 1000 nM. The same measure, in the same setting: under `CCCCCCCc1ccc(Nc2nc(-c3ccccn3)cs2)cc1` [compound 563, N-(4-heptylphenyl)-4-(pyridin-2-yl)thiazol-2-amine] stands below 1000 nM. In the case of `CCCC/C=C\CCOc1ccc(Nc2nc(-c3ccc(F)cc3)cs2)cc1C(F)(F)F` [compound 533, N-(4-((Z)-oct-3-enyloxy)-3-(trifluoromethyl)phenyl)-4-(4-fluorophenyl)thiazol-2-amine], the EC50 is below 1000 nM. As to `CCCCCCCCc1ccc(Nc2nc(-c3ccc[n+]([O-])c3)cs2)cc1` [compound 524], the EC50 was below 1000 nM. In the case of `CCCCCCCCN(C)c1ccc(Nc2nc(-c3ccc(OCC(=O)O)cc3)c(C)s2)cc1C(F)(F)F` [compound 574, 2-(4-(2-(4-(N-methyl-N-octylamino)-3-(trifluoromethyl)phenylamino)-5-methylthiazol-4-yl)phenoxy)acetic acid], the EC50 is below 1000 nM.

For `CCCCCOc1ccc(Nc2nc(-c3cncc(C(=O)OCC)c3)cs2)cc1C(F)(F)F` [compound 603, ethyl 5-(2-(3-(trifluoromethyl)-4-(pentyloxy)phenylamino)thiazol-4-yl)pyridine-3-carboxylate], the EC50 lay in the range of 1000 to 10000 nM. For the molecule `CCCCCOc1ccc(Nc2nc(/C=C/c3ccc(F)c(F)c3)cs2)cc1C(F)(F)F` [compound 599, 4-(3,4-difluorostyryl)-N-(3-(trifluoromethyl)-4-(pentyloxy)phenyl)thiazol-2-amine], the EC50 is below 1000 nM.

The same experiment, now with this note: Hepatitis C virus, replicon based assay of HCV replication inhibition; Table II; read-out: Activity.
Regarding `CCCCCCCCOc1ccc(Nc2nc(Cc3cccc(F)c3)cs2)cc1` [compound 516, 4-(3-fluorobenzyl)-N-(4-(octyloxy)phenyl)thiazol-2-amine], the EC50 was above 10000 nM.

Regarding `CCCCCOc1ccc(Nc2nc(CN3CCN(CCN(C)C)CC3)cs2)cc1F` [compound 283, 4-((4-(2-(dimeethylamino)ethyl)piper-azin-1-yl)methyl)-N-(3-fluoro-4-(pentyloxy)phenyl)thiazol-2-amine], the EC50 fell in the range of 1000 to 10000 nM. For the molecule `CC(=O)OCCCCCCN(C)c1ccc(Nc2nc(-c3ccc(F)cc3)cs2)cc1C(F)(F)F` [compound 467], the EC50 is above 10000 nM. In the case of `CCCCCOc1ccc(Nc2nc(-c3ccc(O)c(O)c3)cs2)cc1C(F)(F)F` [compound 404, 4-(2-(3-(trifluoromethyl)-4-(pentyloxy)phenylamino)thia-zol-4-yl)benzene-1,2-diol], the EC50 is below 1000 nM. On to `CCCCCCCOc1ccc(Nc2nc(-c3c(C)cc(C)nc3C)cs2)cc1` [compound 446, N-(4-(heptyloxy)phenyl)-4-(2,4,6-trimethylpyridin-3-yl)thiazol-2-amine], for which the EC50 is above 10000 nM. Turning to `COc1ccc(C2CCCCC2)cc1Nc1nc(-c2cccnc2)cs1` [compound 299, N-(5-cyclohexyl-2-methoxyphenyl)-4-(pyridin-3-yl)thiazol-2-amine], the EC50 lay in the range of 1000 to 10000 nM. With `CCCCCOc1ccc(Nc2nc(-c3ccc(CO)nc3)cs2)cc1C(F)(F)F` [compound 264, (5-(2-(4-(pentyloxy)-3-(trifluoromethyl)phenyl-amino)thiazol-4-yl)pyridin-2-yl)methanol], the EC50 was below 1000 nM.

In the case of `CCCCCCCCOc1ccc(Nc2nc(-c3sc(-c4cnccn4)nc3C)cs2)cc1` [compound 390, 4-(4-methyl-2-(pyrazin-2-yl)thiazol-5-yl)-N-(4-(octyloxy)phenyl)thiazol-2-amine], the EC50 was below 1000 nM. Same read-out and setting: the result for `Cc1sc(NC(=O)c2ccccc2)nc1-c1ccc(OCC(=O)O)cc1` [compound 340, 2-(4-(2-benzamido-5-methylthiazol-4-yl)phenoxy)acetic acid] reads above 10000 nM; that for `CCOC(=O)c1ccc(Nc2nc(-c3ccc(OC)cc3)c(-c3ccc(OC)cc3)s2)cc1` [compound 334, ethyl 4-(4,5-bis(4-methoxyphenyl)thiazol-2-ylamino)benzoate], 1000 to 10000 nM; that for `COc1ccc(-c2csc(Nc3ccc(OCC4CC4)c(C(F)(F)F)c3)n2)cc1` [compound 250, N-(4-(cyclopropylmethoxy)-3-(trifluoromethyl)phenyl)-4-(4-methoxyphenyl)thiazol-2-amine], below 1000 nM. As for `FC(F)(F)c1cc(Nc2nc(-c3cccnc3)cs2)ccc1OCCCC1CCCC1` [compound 495, N-(4-(3-cyclopentylpropoxy)-3-(trifluoromethyl)phenyl)-4-(pyridin-3-yl)thiazol-2-amine], the EC50 was below 1000 nM.

The experiment is the same for the next values; noted with them: Hepatitis C virus, replicon based assay of HCV replication inhibition; Table IV; read-out: Activity.
For the molecule `Fc1cc(Nc2nc(-c3cccnc3)cs2)ccc1OCCCCc1ccccc1` [compound 912, N-(4-(4-phenylbutoxy)-3-fluorophenyl)-4-(pyridin-3-yl)thiazol-2-amine], the EC50 is below 1000 nM. For `FC(F)(F)c1cc(Nc2nc(-c3cccnc3)cs2)ccc1OCCCCc1ccccc1` [compound 804, N-(4-(4-phenylbutoxy)-3-(trifluoromethyl)phenyl)-4-(pyridin-3-yl)thiazol-2-amine], the EC50 was below 1000 nM. The same measure, in the same setting: the result for `CCCCCCCCOc1ccc(Nc2nc(-c3cccnc3)c(F)s2)cc1C(F)(F)F` [compound 914, 5-fluoro-N-(3-(trifluoromethyl)-4-(octyloxy)phenyl)-4-(pyridin-3-yl)thiazol-2-amine] reads below 1000 nM.

For the molecule `FC(F)(F)c1cc(Nc2nc(-c3cccnc3)cs2)ccc1OCCSc1ccccc1` [compound 864, N-(4-(2-(phenylthio)ethoxy)-3-(trifluoromethyl)phenyl)-4-(pyridin-3-yl)thiazol-2-amine], the EC50 was below 1000 nM.

Regarding `OCc1cc2cc(-c3csc(Nc4ccc(OCC5CCCCC5)c(C(F)(F)F)c4)n3)ccc2o1` [compound 765, (5-(2-(4-(cyclohexylmethoxy)-3-(trifluoromethyl)phenylamino)thiazol-4-yl)benzofuran-2-yl)methanol], the EC50 is below 1000 nM. Take `CC(C)=CCC/C(C)=C/COc1ccc(Nc2nc(-c3ccc(F)cc3)cs2)cc1C(F)(F)F` [compound 827, N-(4-((E)-3,7-dimethylocta-2,6-dienyloxy)-3-(trifluoromethyl)phenyl)-4-(4-fluorophenyl)thiazol-2-amine]: the EC50 was above 10000 nM. The same measure, in the same setting: the result for `Cc1sc(Nc2ccc(OCCCc3cccnc3)c(C(F)(F)F)c2)nc1-c1cccnc1` [compound 846, N-(4-(3-(pyridin-3-yl)propoxy)-3-(trifluoromethyl)phenyl)-5-methyl-4-(pyridin-3-yl)thiazol-2-amine] reads above 10000 nM; that for `CCOC(=O)Cc1ccc(-c2csc(Nc3ccc(OCCCCc4ccccc4)c(F)c3)n2)s1` [compound 930, ethyl 2-(5-(2-(4-(4-phenylbutoxy)-3-fluorophenylamino)thiazol-4-yl)thiophen-2-yl)acetate], 1000 to 10000 nM; that for `CCCCCCCCOc1ccc(Nc2nc(C(=O)CSc3ncc[nH]3)cs2)cc1C(F)(F)F` [compound 785, 2-(1H-imidazol-2-ylthio)-1-(2-(3-(trifluoromethyl)-4-(octyloxy)phenylamino)thiazol-4-yl)ethanone], 1000 to 10000 nM. With `CCCCCCCCNc1ccc(-c2nc(-c3csc(Nc4cccnc4)n3)cs2)cc1C(F)(F)F` [compound 869, N-(4-(2-(3-(trifluoromethyl)-4-(octylamino)phenyl)thiazol-4-yl)thiazol-2-yl)pyridin-3-amine], the EC50 is below 1000 nM. On the same count and under the same terms, the result for `O=S(=O)(Nc1ccccn1)c1ccc(Nc2nc(-c3cccnc3)cs2)cc1` [compound 911] reads above 10000 nM; that for `CCCCCCCN(C)Cc1ccc(Nc2nc(-c3cccnc3)c(C)s2)cc1C(F)(F)F` [compound 863], 1000 to 10000 nM.
